Reference: patent publication US10053453B2, “Compounds and their use as BACE inhibitors” (AstraZeneca AB, priority 2014, dated 2018)
Structures can show the parent of a compound that is named as a salt. Where two headings read alike, the source gives them in different places.

Key:
Human BACE2 = target: T1, Human BACE2 (Homo sapiens, UniProt Q9Y5Z0); experiment: TR-FRET assay; assay type: biochemical; settings: enzyme 2.7 μg/mL, substrate 100 nM, pH4.5
T1 construct: the soluble part of the human β-Secretase2 (AA1-AA473) was cloned using BACE2(1-473)-(AVT)-Fc-pDEST12.2 mammalian expression vector; AVT linker (C); made in house
T1 sequence (Q9Y5Z0 21-473): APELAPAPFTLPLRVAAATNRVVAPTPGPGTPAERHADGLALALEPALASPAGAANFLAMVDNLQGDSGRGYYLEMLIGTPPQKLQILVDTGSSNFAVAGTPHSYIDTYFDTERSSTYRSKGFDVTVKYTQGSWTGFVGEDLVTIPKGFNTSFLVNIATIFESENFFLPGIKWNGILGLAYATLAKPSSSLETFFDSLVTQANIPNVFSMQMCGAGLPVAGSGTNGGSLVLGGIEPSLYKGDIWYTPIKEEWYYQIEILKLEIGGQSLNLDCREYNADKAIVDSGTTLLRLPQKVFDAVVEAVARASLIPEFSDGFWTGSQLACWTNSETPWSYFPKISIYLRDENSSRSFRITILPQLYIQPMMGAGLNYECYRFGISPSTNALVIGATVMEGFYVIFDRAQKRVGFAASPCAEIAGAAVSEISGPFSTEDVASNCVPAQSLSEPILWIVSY
Description: (§1) The β-secretase enzyme used in the TR-FRET was prepared as follows:
(§2) Human BACE1: the cDNA for the soluble part of the human β-Secretase1 (AA1-AA460) was cloned using the BACE1(1-460)-(AVT)-Fc-pGEN-IRES-neo mammalian expression vector. The gene was fused to the Fe domain of IgG1 (affinity tag) and stably cloned into HEK 293 cells. […]
(§3) A multidrop Combi was used for the liquid handling. Enzyme (7 μL) was added to the compound plate (containing 0.8 μL of compound in dimethylsulphoxide). The plate was incubated for 10 minutes. Substrate (8 μL) was then added, and the reaction proceeded for 17 minutes at r.t. The reaction was stopped with the addition of Stop solution (5.5 μL, NaOAC, pH 9). Fluorescence was measured on a Pherastar plate reader using HTRF module. […] 5 reference inhibitors with different affinities were used at all screen occasions in dose response.

SH-SY5Y cells = experiment: sAPPβ release assay
Human BACE1 = target: T2, Human BACE1 (Homo sapiens, UniProt P56817); experiment: Diluted TR-FRET assay; assay type: biochemical; settings: 50 times less enzyme, 6.5 h reaction time at r.t.; read-out: IC50 BACE1 (dil. TR-FRET)
T2 construct: the soluble part of the human β-Secretase1 (AA1-AA460) was cloned using the BACE1(1-460)-(AVT)-Fc-pGEN-IRES-neo mammalian expression vector; AVT linker (C); made in house
T2 sequence (P56817 22-460): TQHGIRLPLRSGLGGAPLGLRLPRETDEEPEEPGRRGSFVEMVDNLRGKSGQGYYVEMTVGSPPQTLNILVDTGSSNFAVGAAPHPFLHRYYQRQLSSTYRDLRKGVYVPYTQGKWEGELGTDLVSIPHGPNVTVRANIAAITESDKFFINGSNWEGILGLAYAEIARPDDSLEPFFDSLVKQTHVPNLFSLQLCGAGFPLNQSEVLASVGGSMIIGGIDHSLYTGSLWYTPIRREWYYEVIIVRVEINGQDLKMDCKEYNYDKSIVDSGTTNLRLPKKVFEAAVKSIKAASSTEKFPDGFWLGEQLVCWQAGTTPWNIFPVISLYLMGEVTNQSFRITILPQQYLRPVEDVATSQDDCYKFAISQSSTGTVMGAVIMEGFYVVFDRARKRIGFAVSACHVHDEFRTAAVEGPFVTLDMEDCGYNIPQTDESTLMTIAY
Description: as §1, §2
as §3, with “Substrate (8 μL) was then added, and the reaction proceeded for 17 minutes at r.t.” left out

[1] = Homo sapiens, SH-SY5Y, read-out: IC50 Cell (sAPPβ release, nM), SH-SY5Y cells, compounds incubated 16-17 h
[2] = Homo sapiens, SH-SY5Y, read-out: IC50 Cell (sAPPβ release, nM)

Row | SMILES | IC50 (Human BACE2) | IC50 (SH-SY5Y cells; [1]) | IC50 (Human BACE1) | IC50 (SH-SY5Y cells; read-out: IC50 Cell (sAPPβ release), SH-SY5Y cells, compounds incubated 16-17 h) | IC50 (SH-SY5Y cells; [2])
1 | [2H]C1([2H])OC(N)=N[C@]12c1cc(-c3cncc(C4CC4)c3)ccc1C[C@]21CC[C@@H](OC)[C@H](C)C1 [Compound 1, (1R,1′R,3R,4R)-6′-(5-cyclopropylpyridin-3-yl)-4-methoxy-3-methyl-3′H,5″H-dispiro[cyclohexane-1,2′-indene-1′,4″-oxazol]-5″,5″-d2-2″-amine formate Salt] | 144 nM | 5.3 nM | 239 nM |  | 
2 | [2H]C1([2H])OC(N)=N[C@]12c1cc(-c3cncc(C#CC)c3)ccc1C[C@]21CC[C@@H](OC)[C@H](C)C1 [Compound 2, (1R,1′R,3R,4R)-4-methoxy-3-methyl-6′-(5-(prop-1-yn-1-yl)pyridin-3-yl)-3′H,5″H-dispiro[cyclohexane-1,2′-indene-1′,4″-oxazol]-5″,5″-d2-2″-amine] | 17 nM | 0.27 nM | 6.2 nM |  | 
3 | [2H]C1([2H])OC(N)=N[C@]12c1cc(-c3cccnc3)ccc1C[C@]21CC[C@@H](OC)CC1 [Compound 117, {(1r,1′R,4R)-4-methoxy-6′-(pyrimidin-3-yl)-3′H,5″H-dispiro[cyclohexane-1,2′-indene-1′,4″-oxazol]-5″,5″-d2-2″-amine}] |  |  | 341 nM |  | 7 nM
4 | [2H]C1([2H])OC(N)=N[C@]12c1cc(-c3cncnc3)ccc1C[C@]21CC[C@@H](OC)CC1 [Compound 118, {(1r,1′R,4R)-4-methoxy-6′-(pyrimidin-5-yl)-3′H,5″H-dispiro[cyclohexane-1,2′-indene-1′,4″-oxazol]-5″,5″-d2-2″-amine}] |  |  | 287 nM |  | 6 nM

More lines, main results first:

Row | IC50 (Human BACE2) | IC50 (SH-SY5Y cells; [1]) | IC50 (Human BACE1) | IC50 (SH-SY5Y cells; read-out: IC50 Cell (sAPPβ release), SH-SY5Y cells, compounds incubated 16-17 h) | SMILES | IC50 (SH-SY5Y cells; [2])
5 | 519 nM | 0.9 nM | 266 nM |  | [2H]C1([2H])OC(N)=N[C@]12c1cc(C#CC(C)C)ccc1C[C@@]21CC[C@H](O)[C@@H](C)C1 (racemic) [Compound 11, (1S,3S,4S)-2″-amino-3-methyl-6′-(3-methylbut-1-yn-1-yl)-3′H,5″H-dispiro[cyclohexane-1,2′-indene-1′,4″-oxazol]-5″,5″-d2-4-ol and (1R,3R,4R)-2″-amino-3-methyl-6′-(3-methylbut-1-yn-1-yl)-3′H,5″H-dispiro[cyclohexane-1,2′-indene-1′,4″-oxazol]-5″,5″-d2-4-ol] | 
6 | 16 nM | 0.2 nM | 1.1 nM |  | [2H]C1([2H])OC(N)=N[C@]12c1cc(-c3cncc(C#CC)c3)ccc1C[C@@]21CC[C@H](OC)[C@@H](C)C1 [Compound 3, (1S,1′R,3S,4S)-4-methoxy-3-methyl-6′-(5-(prop-1-yn-1-yl)pyridin-3-yl)-3′H,5″H-dispiro[cyclohexane-1,2′-indene-1′,4″-oxazol]-5″,5″-d2-2″-amine] | 
7 | 37.8 nM | 0.39 nM | 6.8 nM |  | [2H]C1([2H])OC(N)=N[C@]12c1cc(-c3cncc(Cl)c3)ccc1C[C@@]21CC[C@H](OC)[C@@H](C)C1 [Compound 4, (1S,1′R,3S,4S)-6′-(5-chloropyridin-3-yl)-4-methoxy-3-methyl-3′H,5″H-dispiro[cyclohexane-1,2′-indene-1′,4″-oxazol]-5″,5″-d2-2″-amine] | 
8 | 99 nM | 2.2 nM | 54 nM |  | [2H]C1([2H])OC(N)=N[C@]12c1cc(-c3cncc(C4CC4)c3)ccc1C[C@@]21CC[C@H](OC)[C@@H](C)C1 [Compound 6, (1S,1′R,3S,4S)-6′-(5-cyclopropylpyridin-3-yl)-4-methoxy-3-methyl-3′H,5″H-dispiro[cyclohexane-1,2′-indene-1′,4″-oxazol]-5″,5″-d2-2″-amine] | 
9 |  |  | 4.7 nM | 4.3 nM | [2H]C1([2H])OC(N)=NC12c1cc(-c3cc(Cl)cc(C#N)c3)ccc1C[C@@]21C[C@@H](C)[C@H](OC)[C@@H](C)C1 (stereo partly drawn) [Compound 52, 3-((1r,3R,4r,5S)-2″-amino-4-methoxy-3,5-dimethyl-3′H,5″H-dispiro[cyclohexane-1,2′-indene-1′,4″-oxazol]-6′-yl-5″,5″-d2)-5-chlorobenzonitrile] | 
